Target: T1, human IBAT (Homo sapiens, UniProt Q12908)
T1 construct: expressed in transfected cells; host or cells: Baby hamster kidney (BHK) cells, clone H14
T1 sequence (Q12908 1-348): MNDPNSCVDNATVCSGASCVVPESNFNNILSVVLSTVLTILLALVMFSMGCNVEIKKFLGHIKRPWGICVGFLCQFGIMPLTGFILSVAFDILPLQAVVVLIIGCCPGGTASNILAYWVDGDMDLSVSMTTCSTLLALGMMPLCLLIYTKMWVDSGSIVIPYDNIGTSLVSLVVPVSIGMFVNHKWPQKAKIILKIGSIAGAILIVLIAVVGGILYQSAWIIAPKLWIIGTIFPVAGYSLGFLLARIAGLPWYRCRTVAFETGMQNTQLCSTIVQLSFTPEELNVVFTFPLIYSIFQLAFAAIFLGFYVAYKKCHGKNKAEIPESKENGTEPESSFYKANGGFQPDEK
Assay: In vitro assay of compounds that inhibit IBAT-mediated uptake of [14C]-taurocholate (TC) in H14 cells
Assay type: cell-based
Details: [14C]-taurocholate uptake, read-out: Human TC IC50
Description: In Vitro Assay of Compounds That Inhibit IBAT-Mediated Uptake of [^14C]-Taurocholate (TC) in H14 Cells
Baby hamster kidney cells (BHK) transfected with the cDNA of human IBAT (H14 cells) are seeded at 60,000 cells/well in 96 well Top-Count tissue culture plates for assays run within in 24 hours of seeding, 30,000 cells/well for assays run within 48 hours, and 10,000 cells/well for assays run within 72 hours.
On the day of assay, the cell monolayer is gently washed once with […] assay buffer (Dulbecco's Modified Eaglets medium with 4.5 g/L glucose+0.2% (w/v) fatty acid free bovine serum albumin- (FAF)BSA). To each well 50 ml of a two-fold concentrate of test compound in assay buffer is added along with 50 ml of […] [^14C]-taurocholate in assay buffer (final concentration of […] [^14C]-taurocholate). The cell culture plates are incubated 2 hours at 37° C. prior to gently washing each well twice with […] 4° C. Dulbecco's phosphate-buffered saline (PBS) containing 0.2% (w/v) (FAF)BSA. The wells are then gently washed once with […] 4° C. PBS without (FAF)BSA. To each 200 ml of liquid scintillation counting fluid is added, the plates are heat sealed and shaken for 30 minutes at room temperature prior to measuring the amount of radioactivity in each well on a Packard Top-Count instrument.

SMILES | IC50 [nM]
CCCC[C@]1(CC)CS(=O)(=O)c2cc(OCCOCCOCCOc3ccc4c(c3)S(=O)(=O)C[C@@](CC)(CCCC)[C@H](O)[C@@H]4c3ccccc3)ccc2[C@@H](c2ccccc2)[C@H]1O [Example 135] | 22000
CCCC[C@@]1(CC)CS(=O)(=O)c2cc(OCCOCCOCCOc3ccc4c(c3)S(=O)(=O)C[C@@](CC)(CCCC)[C@@H](O)[C@H]4c3ccccc3)ccc2[C@@H](c2ccccc2)[C@H]1O [Example 137] | 2400
CCCCC1(CC)CS(=O)(=O)c2ccc(OC)cc2C(c2ccccc2F)C1O (stereo not drawn) [Example 278] | 3000
CCCCC1(CC)CS(=O)(=O)c2ccc(OC)cc2C(c2cccc(F)c2)C1O (stereo not drawn) [Example 279] | 400
CCCCC1(CCCC)CS(=O)(=O)c2ccc(NC(=O)OCc3ccccc3)cc2[C@@H](c2ccccc2)[C@H]1O [Example 291] | 600
CCCCC1(CCCC)CS(=O)(=O)c2ccc(NCc3ccccc3)cc2[C@@H](c2ccccc2)[C@H]1O [Example 293] | 1900
CCCCC1(CC)CS(=O)(=O)c2ccc(N(C)C)cc2C(c2ccc(OCCOCCOCCOc3ccc(C4c5cc(N(C)C)ccc5S(=O)(=O)CC(CC)(CCCC)C4O)cc3)cc2)C1O (stereo not drawn) [Example 1211] | 280
CCCCC1(CCCC)CS(=O)(=O)c2ccc(NC(C)(C)C)cc2C(c2ccc(F)cc2)C1O (stereo not drawn) [Example 1227] | 250
CCCCC1(CCCC)CS(=O)(=O)c2ccc(N(C)C)cc2C(c2ccc(OCCOCCOCCOc3ccc(C4c5cc(N(C)C)ccc5S(=O)(=O)CC(CCCC)(CCCC)C4O)cc3)cc2)C1O (stereo not drawn) [Example 1261] | 19
CCCCC1(CCCC)CS(=O)(=O)c2ccc(N(C)C)cc2C(c2ccc(OCCCCCCCCCCI)cc2)C1O (stereo not drawn) [Example 1269] | 24
CCCCC1(CCCC)CS(=O)(=O)c2ccc(N(C)C)cc2C(c2ccc(OCCCCBr)c(F)c2)C1O (stereo not drawn) [Example 1270] | 24
CCCCC1(CCCC)CS(=O)(=O)c2ccc(N(C)C)cc2C(c2ccc(OCCOCC[S+](CC)CC)c(F)c2)C1O (stereo not drawn) [Example 1299] | 12
CCCCC1(CCCC)CS(=O)(=O)c2ccc(N(C)C)cc2C(c2ccc(OCCCCCCCCCCOc3ccccc3[N+](C)(C)CC)cc2)C1O (stereo not drawn) [Example 1351] | 440
CCCCC1(CCCC)CS(=O)(=O)c2ccc(N(C)C)cc2C(c2cccc(OCCOCCOCC[N+](CC)(CCCc3ccccc3)CCCc3ccccc3)c2)C1O (stereo not drawn) [Example 1449] | 52
CCCCC1(CCCC)CS(=O)(=O)c2ccc(N(C)C)cc2C(c2ccccc2)C1O (stereo not drawn) [Example 1450] | 39
CCCCC1(CCCC)CS(=O)(=O)c2ccc(N(C)C)cc2C(c2cccc(NCCCS(=O)(=O)O)c2)C1O (stereo not drawn) [Example 1451] | 14

Same assay, conditions: [14C]-taurocholate uptake, read-out: IC50 (In vitro Taurocholate Cell Uptake)

SMILES | IC50 [nM]
CCCCC1(CC)CS(=O)(=O)c2ccccc2C(=C2CCCCC2)C1O (stereo not drawn) [Example 10b, 3-Butyl-3-ethyl-4-hydroxy-5-cyclohexylidine-2,3,4,5-tetraydrobenzothiepine-1,1-dioxide] | 15000

Tested on: not listed separately
Assay: Rat Alzet minipump model: fecal weight and fecal bile acid concentration (FBA)
Assay type: in vivo
Details: 20 MPL/DAY, mean (SEM)

SMILES | 24 HR. FECAL WT
CCCC[C@]1(CC)CS(=O)(=O)c2cc(OC)ccc2[C@@H](c2ccccc2)[C@H]1O [Example 25, (3a,4b,5b) 3-Butyl-3-ethyl-4-hydroxy-8-methoxy-5-phenyl-2,3,4,5-tetrahydrobenzothiepine-1,1-dioxide] | 5.7 (0.4) G

Tested on: uptake of [14C]-alanine in H14 cells
Assay: In vitro assay of compounds that inhibit uptake of [14C]-alanine (H14 cells)
Assay type: cell-based, hamster
Details: Mesocricetus auratus

SMILES | inhibition at 100 µM [%]
CCCCC1(CC)CS(=O)(=O)c2ccccc2C(=C2CCCCC2)C1O (stereo not drawn) [Example 10b, 3-Butyl-3-ethyl-4-hydroxy-5-cyclohexylidine-2,3,4,5-tetraydrobenzothiepine-1,1-dioxide] | 68.6

Same assay, conditions: Mesocricetus auratus; @ 1.0 μM; read-out: Alanine Uptake Percent Inhibition @ μM

SMILES | inhibition at 1 µM [%]
CCCC[C@]1(CC)CS(=O)(=O)c2ccc(NC(=O)CCCCCCCCCCC(=O)Nc3ccc4c(c3)[C@@H](c3ccccc3)[C@@H](O)[C@](CC)(CCCC)CS4(=O)=O)cc2[C@@H](c2ccccc2)[C@H]1O [Example 101] | 0

Tested on: not listed separately
Assay: Cholesterol-fed hamsters: fecal weight and fecal bile acid concentration (FBA)
Assay type: in vivo, hamster
Details: mean (SEM), 4% cholestyramine or 0.2% Cpd. No. 25
Description: Measurement of Fecal Bile Acid Concentration (FBA)
Total fecal output from individually housed hamsters was collected for 24 or 48 hours, dried under a stream of nitrogen, pulverized and weighed. Approximately 0.1 gram was weighed out and extracted into an organic solvent (butanol/water). Following separation and drying, the residue was dissolved in methanol and the amount of bile acid present was measured enzymatically using the 3a-hydroxysteroid steroid dehydrogenase reaction with bile acids to reduce NAD. (Reference: Mashige, F., et al. (1981) Clin. Chem. 27, 1352).

SMILES | 24 HR. FECAL Wt (G)
CCCC[C@]1(CC)CS(=O)(=O)c2cc(OC)ccc2[C@@H](c2ccccc2)[C@H]1O [Example 25, (3a,4b,5b) 3-Butyl-3-ethyl-4-hydroxy-8-methoxy-5-phenyl-2,3,4,5-tetrahydrobenzothiepine-1,1-dioxide] | 2.4 (0.04) G

Source: US6943189B2, “Combination therapy employing ileal bile acid transport inhibiting benzothiepines and HMG CO-A reductase inhibitors” (G.D. Searle & Co., priority 1994, dated 2005)
